The subject of the test is Human skin fibroblasts (HSF cells). Nature of the test: MTT assay, effect on HSF cell growth. Format: cell-based. To be noted: 10% DMSO. The procedure:
Dimethyl sulfoxide (DMSO) can dissolve formazan in cells, and its light absorption value can be measured at a wavelength of […] using an enzyme-linked immunosorbent assay, which can indirectly reflect the number of live cells. Within a certain range of cell numbers, the amount of MTT crystals formed is proportional to the number of cells.
Logarithmic phase cells are collected and the cell suspension concentration is adjusted. 100 μL of cell suspension is added per well and plated to adjust the density of the cells to be tested to 10,000 cells/well, and the edge wells are filled with sterile PBS. The cells are incubated under 5% CO2 at 37° C. until the cell monolayer spreads over all the bottom of the wells. Then, the drug in a concentration gradient is added; in principle, the drug can be added once the cells have adhered, with five parallel settings. The incubation is performed under 5% CO2 at 37° C. for 24 h or 48 h and the cells are observed under an inverted microscope. 20 μL of MTT solution (5 mg/mL, i.e., 0.5% MTT) is added to each well and the incubation is continued for 4 h. […] The light absorption value of each well is measured at […] using an Enzyme-Linked Immunosorbent Assay (ELISA) reader. […]
(Tetrazolium dyes change colour on reduction, which living cells bring about.)

Take `C[S+](C)[O-]` [DMSO, Dimethyl Sulfoxide, reference compound]: the “RGR (24 h)” value (24 h) was found to be 28.20%. The “RGR (48 h)” value (48 h) worked out at 17.15%.

(Values after patent US12473350B2, “Recombinant humanized type III collagen microsphere with innovative spatial structure, and design, preparation process and usethereof” (Nanjing Tzone Biotechnology Co., Ltd., priority 2023, dated 2025).)
